{"source": "patent US20180119123A1", "about": "“CRISPR/CAS-RELATED METHODS AND COMPOSITIONS FOR TREATING HIV INFECTION AND AIDS” (EDITAS MEDICINE, INC., priority 2015, published 2018)", "key": {"[1]": {"test_system": "human mobilized peripheral blood CD34^+ HSCs", "assay": "Viability by 7-AAD / Annexin-V flow cytometry 96 hours after Nucleofection", "assay_type": "cell-based", "method": "Human CD34^+ HSCs cells from mobilized peripheral blood (AllCells) were thawed into StemSpan Serum-Free Expansion Medium (SFEM™, StemCell Technologies) containing 100 ng/mL each of the following cytokines: human stem cell factor (SCF), thrombopoietin (TPO), and flt-3 ligand (FL) (all from Peprotech). Cells were grown for 3 days in a humidified incubator and 5% CO2 20% O2. […] The published use of UM171 involved prolonged exposure of HSCs to the small molecule for ex vivo expansion of HSCs. In the current experiment, HSCs were exposed to UM171 for 2 hours before and 24 hours after delivery of Cas9 and gRNA plasmid DNA. This UM171 treatment protocol was based on pilot studies performed by the inventors that indicated acute pre-treatment with UM171 before lentivirus vector mediated gene delivery improved HSC viability compared to HSCs treated with vehicle (dimethylsulfoxide, DMSO, Sigma) alone. […] At 96 hours after Nucleofection™, CD34^+ cells were counted for by trypan blue exclusion and divided into 3 portions for the following analyses: a) flow cytometry analysis for assessment of viability by co-staining with 7-Aminoactinomycin-D (7-AAD) and allophycocyanin (APC)-conjugated Annexin-V antibody (ebioscience); b) flow cytometry analysis for maintenance of HSC phenotype (after co-staining with phycoerythrin (PE)-conjugated anti-human CD34 antibody and fluorescein isothicyanate (FITC)-conjugated anti-human CD90, both from BD Bioscience; c) hematopoietic colony forming cell (CFC) analysis by plating 1500 cells in semi-solid methylcellulose based Methocult medium (StemCell Technologies) that supports differentiation of erythroid and myeloid blood cell colonies from HSCs and serves as a surrogate assay to evaluate HSC multipotency and differentiation potential ex vivo; d) genomic DNA analysis for detection of editing at the CCR5 locus. […]"}, "CD34^+ HSCs": {"test_system": "CD34^+ HSCs", "assay": "Hematopoietic colony forming cell (CFC) assay in Methocult medium", "assay_type": "cell-based, human", "conditions": "Nucleofection with wild-type Cas9 and CCR5-U43 gRNA plasmid DNA + UM171; two weeks", "method": "Human CD34^+ HSCs cells from mobilized peripheral blood (AllCells) were thawed into StemSpan Serum-Free Expansion Medium (SFEM™, StemCell Technologies) containing 100 ng/mL each of the following cytokines: human stem cell factor (SCF), thrombopoietin (TPO), and flt-3 ligand (FL) (all from Peprotech). Cells were grown for 3 days in a humidified incubator and 5% CO2 20% O2. […] The published use of UM171 involved prolonged exposure of HSCs to the small molecule for ex vivo expansion of HSCs. In the current experiment, HSCs were exposed to UM171 for 2 hours before and 24 hours after delivery of Cas9 and gRNA plasmid DNA. This UM171 treatment protocol was based on pilot studies performed by the inventors that indicated acute pre-treatment with UM171 before lentivirus vector mediated gene delivery improved HSC viability compared to HSCs treated with vehicle (dimethylsulfoxide, DMSO, Sigma) alone. After the 2-hour pretreatment with UM171, 1 million […] HSCs were Nucleofected™ with the Amaxa™ 4D Nucleofector™ device (Lonza), Program EO100 using components of the P3 Primary Cell 4D-Nucleofector Kit™ (Lonza) according to the manufacturer's instructions. Briefly, one million cells were suspended in Nucleofector™ solution and the following amounts of plasmid DNA were added to the cell suspension: 1250 ng plasmid expressing CCR5 gRNA (CCR5-U43) from the human U6 promoter and 3750 ng plasmid expressing wild-type S. pyogenes Cas 9 transcriptionally regulated by the CMV promoter. After Nucleofection™, cells were plated into Stemspan-SFEM™ supplemented with SCF, TPO, FL and 40 nM UM171. After overnight incubation, HSCs were plated in Stemspan-SFEM™ plus cytokines without UM171. At 96 hours after Nucleofection™, CD34^+ cells were counted for by trypan blue exclusion and divided into 3 portions for the following analyses: a) flow cytometry analysis for assessment of viability by co-staining with 7-Aminoactinomycin-D (7-AAD) and allophycocyanin (APC)-conjugated Annexin-V antibody (ebioscience); b) flow cytometry analysis for maintenance of HSC phenotype (after co-staining with phycoerythrin (PE)-conjugated anti-human CD34 antibody and fluorescein isothicyanate (FITC)-conjugated anti-human CD90, both from BD Bioscience; c) hematopoietic colony forming cell (CFC) analysis by plating 1500 cells in semi-solid methylcellulose based Methocult medium (StemCell Technologies) that supports differentiation of erythroid and myeloid blood cell colonies from HSCs and serves as a surrogate assay to evaluate HSC multipotency and differentiation potential ex vivo; d) genomic DNA analysis for detection of editing at the CCR5 locus. Genomic DNA was extracted from HSCs 96 hours after Nucleofection™, and CCR5 locus-specific PCR reactions were performed.\nTo evaluate maintenance of HSC potency and differentiation potential, two weeks after plating CD34^+ HSCs in CFC assays, hematopoietic activity was quantified based on scoring the HSC progeny by enumerating the total number of hematopoietic colony forming units (CFU) and the frequencies of specific blood cell phenotypes, including: mixed myeloid/erythroid (Granulocyte-erythroid-monocyte macrophage, CFU-GEMM), myeloid (CFU-macrophage (M), granulocyte-macrophage (CFU-GM)) and erythroid (CFU-E) colonies. CD34^+ HSCs that were Nucleofected™ after UM171 pre-treatment maintained CFC potential compared to un-Nucleofected™ HSCs (Table 12). In contrast, CD34^+ HSCs that were Nucleofected™ without UM171 pre-treatment had reduced CFC potential (lower total CFC counts and reduced numbers of mixed-phenotype colonies (CFU-GEMM) and erythroid colonies (CFU-E)) in comparison to un-Nucleofected™ CD34^+ HSCs.\nHuman CD34^+ HSCs cells from mobilized peripheral blood (AllCells) were thawed into StemSpan Serum-Free Expansion Medium (SFEM, StemCell Technologies) containing 100 ng/mL each of the following cytokines: human stem cell factor (SCF), thrombopoietin (TPO), and flt-3 ligand (FL) (all from Peprotech). […]"}}, "note": "“Also recorded” adds a separate entry of the source."}
{"smiles": "Cn1nnc(-c2ccc3c(c2)[nH]c2nc(Cc4ccccc4)nc(N[C@H]4CC[C@H](N)CC4)c23)n1", "note": "[UM171, (1r,4r)-N1-(2-benzyl-7-(2-methyl-2H-tetrazol-5-yl)-9H-pyrimido[4,5-b]indol-4-yl)cyclohexane-1,4-diamine]", "values": [{"measurement": "Effect of UM171 on CD34+ HSC viability, survival and proliferation after Nucleofection", "setting": "[1]; 40 nM UM171, 2 hours before and 24 hours after Nucleofection with Cas9 and CCR5-U43 gRNA plasmid DNA", "value": "preserved CD34^+ HSC viability; also recorded: critical for maintenance of HSC survival and proliferation"}, {"measurement": "Effect of UM171 on HSC survival and proliferation after Nucleofection", "setting": "[1]; pre-treatment and short-term (24-hour) co-culture, Cas9 and CXCR4 gRNA plasmid DNA", "value": "critical for maintenance of HSC survival and proliferation"}, {"measurement": "Number of colony forming units: E", "setting": "CD34^+ HSCs", "value": "92 colony forming units per 1500 CD34^+ HSCs plated"}, {"measurement": "Number of colony forming units: G", "setting": "CD34^+ HSCs", "value": "40 colony forming units per 1500 CD34^+ HSCs plated"}, {"measurement": "Number of colony forming units: GEMM", "setting": "CD34^+ HSCs", "value": "20 colony forming units per 1500 CD34^+ HSCs plated"}, {"measurement": "Number of colony forming units: GM", "setting": "CD34^+ HSCs", "value": "32 colony forming units per 1500 CD34^+ HSCs plated"}, {"measurement": "Number of colony forming units: M", "setting": "CD34^+ HSCs", "value": "64 colony forming units per 1500 CD34^+ HSCs plated"}, {"measurement": "Number of colony forming units: Total", "setting": "CD34^+ HSCs", "value": "228 colony forming units per 1500 CD34^+ HSCs plated"}]}
